Earlier results, collected in patent US20030114418A1, “Method for the treatment and prevention of pain and inflammation with glucosamine and a cyclooxygenase-2 selective inhibitor and compositions therefor” (Pharmacia Corporation, priority 2001, published 2003).

Legend:
knee osteoarthritis = conditions: patients with knee osteoarthritis, 1500 mg/day, 3 years

SMILES | selectivity for the inhibition of Cox-2 versus Cox-1 (Cox-2) | other results
C[C@H]1[C@H](C)CC[C@]2(C(=O)O)CC[C@]3(C)C(=CC[C@@H]4[C@@]5(C)CC[C@H](O)C(C)(C)[C@@H]5CC[C@]43C)[C@H]12 [ursolic acid] | not substantially more selective for the inhibition of Cox-2 than for Cox-1 | 
N[C@H]1C(O)O[C@H](CO)[C@@H](O)[C@@H]1O.O=S(=O)(O)O (stereo partly shown) [glucosamine sulfate] |  | joint-space loss (knee osteoarthritis): no significant joint-space loss
CC1(C)CC[C@]2(C(=O)O)CC[C@]3(C)C(=CC[C@@H]4[C@@]5(C)CC[C@H](O)C(C)(C)[C@@H]5CC[C@]43C)[C@@H]2C1 [oleanic acid] | not substantially more selective for the inhibition of Cox-2 than for Cox-1 | 
CC(=O)N[C@H]1C(O)O[C@H](CO)[C@@H](O)[C@@H]1O (stereo partly shown) [N-acetylglucosamine] |  | effect on il-1beta-mediated activation of human chondrocytes (human chondrocytes): prevent il-1beta-mediated activation of human chondrocytes
